Measurements reported in patent US20210171564A1, “COMPOSITIONS AND METHODS FOR THE TREATMENT OF CANCER” (Cellix Bio Private Limited, priority 2018, published 2021).
Several values for one entry are separate records, joined by “and”; a condition that tells them apart may be missing. Equal values may be shown once. Entries after “also recorded” stand apart in the source; their conditions may differ.

What was measured:
[1] = system: HCT116 human colon cancer xenograft; assay: Anti-tumor efficacy in HCT-116 xenograft model in Foxn1 nude mice (tumor growth inhibition); format: in vivo, Foxn1 athymic nude female mice; conditions: for % Tumor Growth Inhibition (% TGI): oral; for tumor growth inhibition: day not given
Text: Evaluation of Anti-Tumor Efficacy of Test Compound (CLX-Syn-G155A-C03) in HCT-116 Xenograft Model in Fox N1 Nude Mice:
(§1) The purpose of this study was to evaluate the anti-tumor activity of test compound administered by oral gavage, for a period of 17 days in HCT116 human colon cancer xenograft bearing Foxn1 athymic nude mice. The anti-tumor activity of test compound was compared with capecitabine. Foxn1 athymic nude female mice (7-8 weeks) were implanted with human colon cancer cell line, HCT116 (5 million cells/site) subcutaneously in the dorsal right flank. The animals were randomized (N=10) into different treatment groups as vehicle control, test compound (300 mg/kg, QD, 150 mg/kg BID, 1000 mg/kg QD and 500 mg/kg BID or capecitabine (1000 mg/kg QD and 500 mg/kg BID) based on the tumor volume, when the subcutaneous tumor reached a volume in the range of 70-137 mm^3.
(§2) The animals in the control group were dosed with the formulation used for test compound, which consisted of 0.5% w/v HPMC+0.5% w/v Tween-80 in purified water (q.s) at the dose volume of […]. The Capecitabine formulation was prepared using 0.5% Hydroxypropyl methylcellulose (HPMC E 15) in 40 mM citrate buffer, pH 6.0 at the dose volume of 10 mL/kg. Treatment to animals was performed initially for ten days dosing followed by 2 off doses days and then continued for another 7 days. […] Tumor growth inhibition (TGI) was calculated based on the tumor volume on a given day as compared to that on day 1. On day 19, blood samples were collected from test compound 1000 mg/kg QD and Capecitabine 1000 mg/kg QD groups at 0 hr; prior to dosing (first dose administration in morning) and at 0.5, 1, 2, 4, 8 and 24 hours post dosing to evaluate the pharmacokinetic parameters of various metabolites (5′-DFCR, 5′-DFUR, 5-Fluorouracil and valproic acid).

[2] = Toxicity profile in the xenograft study (mortality, clinical signs, body weight); format: in vivo; conditions: for Diarrhea / Hunch back / Morality: animals affected/10
Text: as §1, §2

| Structure (SMILES) | % Tumor Growth Inhibition (% TGI) ([1]; 500 mg/kg BID, day 4) [%] | % Tumor Growth Inhibition (% TGI) ([1]; 500 mg/kg BID, day 6) [%] | % Tumor Growth Inhibition (% TGI) ([1]; 500 mg/kg BID, day 8) [%] | % Tumor Growth Inhibition (% TGI) ([1]; 500 mg/kg BID, day 11) [%] | % Tumor Growth Inhibition (% TGI) ([1]; 500 mg/kg BID, day 13) [%] | % Tumor Growth Inhibition (% TGI) ([1]; 500 mg/kg BID, day 15) [%] | tumor growth inhibition ([1]; 1000 mg/kg QD (once daily)) [%] | % Tumor Growth Inhibition (% TGI) ([1]; 1000 mg/kg QD, day 4) [%] | % Tumor Growth Inhibition (% TGI) ([1]; 1000 mg/kg QD, day 6) [%] | % Tumor Growth Inhibition (% TGI) ([1]; 1000 mg/kg QD, day 8) [%] | % Tumor Growth Inhibition (% TGI) ([1]; 1000 mg/kg QD, day 11) [%] | % Tumor Growth Inhibition (% TGI) ([1]; 1000 mg/kg QD, day 13) [%] | % Tumor Growth Inhibition (% TGI) ([1]; 1000 mg/kg QD, day 15) [%] | other results |
| --- | --- | --- | --- | --- | --- | --- | --- | --- | --- | --- | --- | --- | --- | --- |
| CCCC(CCC)C(=O)Nc1nc(=O)n([C@@H]2O[C@H](C)[C@@H](OC(C)=O)[C@H]2OC(C)=O)cc1F [Test Compound, (2R,3R,4R,5R)-2-(5-fluoro-2-oxo-4-(2-propylpentanamido)pyrimidin-1(2H)-yl)-5-methyltetrahydrofuran-3,4-diyl diacetate] | 76.3 | 74.8 | 81.3 | 87.7 | 95.4 | 96.6 | > 90 | 66.0 | 70.5 | 73.3 | 78.4 | 88.1 | 90.9 | % Tumor Growth Inhibition (% TGI) ([1]; 150 mg/kg BID, day 4): 37.4%; % Tumor Growth Inhibition (% TGI) ([1]; 150 mg/kg BID, day 6): 40.2%; % Tumor Growth Inhibition (% TGI) ([1]; 150 mg/kg BID, day 8): 39.2%; % Tumor Growth Inhibition (% TGI) ([1]; 150 mg/kg BID, day 11): 47.6%; % Tumor Growth Inhibition (% TGI) ([1]; 150 mg/kg BID, day 13): 55.7%; % Tumor Growth Inhibition (% TGI) ([1]; 150 mg/kg BID, day 15): 54.7%; % Tumor Growth Inhibition (% TGI) ([1]; 300 mg/kg QD, day 4): 58.8%; % Tumor Growth Inhibition (% TGI) ([1]; 300 mg/kg QD, day 6): 51.0%; % Tumor Growth Inhibition (% TGI) ([1]; 300 mg/kg QD, day 8): 55.5%; % Tumor Growth Inhibition (% TGI) ([1]; 300 mg/kg QD, day 11): 60.7%; % Tumor Growth Inhibition (% TGI) ([1]; 300 mg/kg QD, day 13): 67.2%; % Tumor Growth Inhibition (% TGI) ([1]; 300 mg/kg QD, day 15): 70.4%; antitumor activity of once a day schedule versus twice a day schedule (150 mg/kg BID) ([1]; 300 mg/kg/day once daily): better antitumor activity; antitumor activity against HCT-116 human colon cancer xenografts ([1]; oral gavage, QD and BID dosage regimen): statistically significant, dose dependent tumor growth inhibition; also recorded: statistically significant dose dependent antitumor activity |
| CCCCCOC(=O)Nc1nc(=O)n([C@@H]2O[C@H](C)[C@@H](O)[C@H]2O)cc1F [Capecitabine, reference compound] | 87.0 | 82.9 | 85.8 | 89.3 | 93.6 | 94.1 | 94.1 | 76.8 | 71.5 | 71.7 | 77.2 | 86.9 | 87.6 | tumor growth inhibition ([1]; 500 mg/kg BID): 87.6%; Mean % body weight reduction ([2]; 500 mg/kg BID): −16.8%; Diarrhea ([2]; 500 mg/kg BID): 1/10; Hunch back ([2]; 500 mg/kg BID): 3/10; Morality ([2]; 500 mg/kg BID): 2/10; Mean % body weight reduction ([2]; 1000 mg/kg QD): −24.5%; Diarrhea ([2]; 1000 mg/kg QD): 0/10; Hunch back ([2]; 1000 mg/kg QD): 3/10; Morality ([2]; 1000 mg/kg QD): no mortality and 0/10 |
